Test results taken from patent US4479954A, “Piperazine substituted carboxamide derivatives, compositions and method of use” (Eisai Co., Ltd., priority 1981, dated 1984).
Structures can show the parent of a compound that is named as a salt. Where two headings read alike, the source gives them in different places.

Tests used:
DDY strain mice = assay: Acute Toxicity Test, oral, mice (Experiment 2); type: in vivo; settings: observation within one week; for Acute toxicity, number of dead cases / number of cases tested, 500 mg/kg: 500 mg/kg oral; for Acute toxicity, number of dead cases / number of cases tested, 1,000 mg/kg: 1,000 mg/kg oral
Protocol: More specifically, when an experiment was carried out in DDY strain mice, there was no case of death at a dosage of 1,000 mg/kg, as shown below.
DDY strain mice (weighing 20-25 g) maintained on mice chow and water adlibitum in a constant temperature room (22°-24° C.) for at least a week were used.
An acute toxicity test was carried out by oral administration of the compounds at two dosage levels of 500 mg/kg and 1,000 mg/kg. Observation of dead cases were made within one week. In table 2, the denominator of each value indicates the number of cases tested and the numerator indicates the number of dead cases. Compounds A, B, C, D, E and F correspond to Compoounds A-F in Experiment 1 respectively.

sub-diabetic rats = assay: Improvement of glucose tolerance in STZ sub-diabetic rats (Experiment 1); type: in vivo, Male Sprague-Dawley rats; settings: for Improvement of glucose tolerance at 10 mg/kg / inhibition in vivo at 10 mg/kg: Rattus norvegicus; for Improvement of glucose tolerance at 10 mg/kg: po; for inhibition in vivo at 10 mg/kg: 10 mg/kg oral, STZ sub-diabetic rats, relative to control group as 100%
Protocol: Male Sprague-Dawley rats (weighing 300-350 g) were maintained on rat chow and water adlibitum in a constant temperature room (22°-24° C.) for at least a week prior to use in studies. Sub-diabetic rats*^1 were obtained by intrevenous injection of 20 mg/kg of streptozotocin (STZ). The compounds were orally administered in 5% gum arabic suspension in sub-diabetic rats. 3 g/kg of glucose was administered intraperitoneally an hour later. Blood samples were taken from the tail vein, and the blood sugar was measured by the anthrone method [Ui.
*1: STZ sub-diabetic rats are obtained by administering a low dose of streptozotocin (20 mg/kg) dissolved in physiological saline containing 1 mM citrate buffer (pH 4.5) into the superficial cutaneous vein.
*^2 The improvement percent of glucose tolerance means a percentage o
blood sugar of the group treated with the test compounds each after
glucose load (1, 2 and 3 hours after) relative to that of the control

[1] = 1 h, read-out: Improvement percent of glucose tolerance, 1 hr.
[2] = 2 h, read-out: Improvement percent of glucose tolerance, 2 hrs.
[3] = 3 h, read-out: Improvement percent of glucose tolerance, 3 hrs.
[4] = 1 hr. after glucose load (3 g/kg i.p.), read-out: Improvement percent of glucose tolerance, 1 hr.
[5] = 2 hrs. after glucose load (3 g/kg i.p.), read-out: Improvement percent of glucose tolerance, 2 hrs.
[6] = 3 hrs. after glucose load (3 g/kg i.p.), read-out: Improvement percent of glucose tolerance, 3 hrs.

For O=C(O)/C=C\C(=O)O.O=C(OC(CN1CCN(c2ccccn2)CC1)CN1C(=O)[C@H]2CC=CC[C@H]2C1=O)c1cccnc1 (relative stereo) [Compound E, N-[2-Nicotinoyloxy-3-{4-(2-pyridyl)piperazin-1-yl}propyl]cis-cyclohex-4-ene-1,2-dicarboximide maleate], the “Acute toxicity, number of dead cases / number of cases tested, 500 mg/kg” value (DDY strain mice) was 0/5, the “Acute toxicity, number of dead cases / number of cases tested, 1,000 mg/kg” value (DDY strain mice) was 0/5 and the Improvement of glucose tolerance at 10 mg/kg (sub-diabetic rats; [1]) was 11%. It also gave an Improvement of glucose tolerance at 10 mg/kg (sub-diabetic rats; [2]) of 20% and an Improvement of glucose tolerance at 10 mg/kg (sub-diabetic rats; [3]) of 9%.
In the case of O=C(OC(CN1CCN(c2ccccn2)CC1)CN1C(=O)[C@@H]2[C@H](C1=O)[C@@H]1C=C[C@H]2C1)C1CCCCC1 (stereo partly drawn) [Compound F, N-[2-Cyclohexylcarbonyloxy-3-{4-(2-pyridyl)piperazin-1-yl}propyl]endo-cis-bicyclo[2,2,1]hept-5-ene-2,3-dicarboximide dimaleate], the “Acute toxicity, number of dead cases / number of cases tested, 500 mg/kg” value (DDY strain mice) is reported as 0/5, the “Acute toxicity, number of dead cases / number of cases tested, 1,000 mg/kg” value (DDY strain mice) is reported as 0/5 and the inhibition in vivo at 10 mg/kg (sub-diabetic rats; [4]) is reported as 14%. It also gave an inhibition in vivo at 10 mg/kg (sub-diabetic rats; [5]) of 25% and an inhibition in vivo at 10 mg/kg (sub-diabetic rats; [6]) of 34%.
O=C(OC(CN1CCN(c2ccccn2)CC1)CN1C(=O)c2ccccc2C1=O)c1cccnc1 (stereo not drawn) [Compound H, N-[2-Nicotinoyloxy-3-{4-(2-pyridyl)piperazin-1-yl}propyl]phthalimide maleate] gave an inhibition in vivo at 10 mg/kg (sub-diabetic rats; [4]) of 19%, an inhibition in vivo at 10 mg/kg (sub-diabetic rats; [5]) of 23% and an inhibition in vivo at 10 mg/kg (sub-diabetic rats; [6]) of 27%.
For CCCCCCCCCC(=O)OC(CN1CCN(c2ccccn2)CC1)CN1C(=O)C2CC=CCC2C1=O (stereo not drawn) [Compound B, N-[2-n-Decanoyloxy-3-{4-(2-pyridyl)piperazin-1-yl}propyl]cis-cyclohex-4-ene-1,2-dicarboximide dimaleater], the “Acute toxicity, number of dead cases / number of cases tested, 500 mg/kg” value (DDY strain mice) was 0/5, the “Acute toxicity, number of dead cases / number of cases tested, 1,000 mg/kg” value (DDY strain mice) was 0/5 and the inhibition in vivo at 10 mg/kg (sub-diabetic rats; [4]) was 15%. The inhibition in vivo at 10 mg/kg (sub-diabetic rats; [5]) was 23% and the inhibition in vivo at 10 mg/kg (sub-diabetic rats; [6]) was 26%.
In the case of CCCCCC(=O)OC(CN1CCN(c2ccccn2)CC1)CN1C(=O)C2CC=CCC2C1=O (stereo not drawn) [Compound C, N-[2-n-Caproyloxy-3-{4-(2-pyridyl)piperazin-1-yl}propyl]cis-cyclohex-4-ene-1,2-dicarboximide dimaleate], the “Acute toxicity, number of dead cases / number of cases tested, 500 mg/kg” value (DDY strain mice) is reported as 0/5, the “Acute toxicity, number of dead cases / number of cases tested, 1,000 mg/kg” value (DDY strain mice) is reported as 0/5 and the inhibition in vivo at 10 mg/kg (sub-diabetic rats; [4]) is reported as 7%. For the same compound, the inhibition in vivo at 10 mg/kg (sub-diabetic rats; [5]) was 17% and the inhibition in vivo at 10 mg/kg (sub-diabetic rats; [6]) was 23%.
For CCCCCCCCCCCCCCCC(=O)OC(CN1CCN(c2ccccn2)CC1)CN1C(=O)[C@H]2CC=CC[C@H]2C1=O (relative stereo) [Compound G, N-[2-Palmitoyloxy-3-{4-(2-pyridyl)piperazin-1-yl}propyl]cis-cyclohex-4-ene-1,2-dicarboximide dimaleate], the inhibition in vivo at 10 mg/kg (sub-diabetic rats; [4]) was 3%, the inhibition in vivo at 10 mg/kg (sub-diabetic rats; [5]) was 15% and the inhibition in vivo at 10 mg/kg (sub-diabetic rats; [6]) was 24%.
With CCCCCC/C=C/C(=O)OC(CN1CCN(c2ccccn2)CC1)CN1C(=O)[C@H]2CC=CC[C@H]2C1=O.O=C(O)/C=C\C(=O)O.O=C(O)/C=C\C(=O)O (relative stereo) [Compound D, N-[2-(trans-2-Nonenoyloxy)-3-{4-(2-pyridyl)piperazin-1-yl}propyl]cis-cyclohex-4-ene-1,2-dicarboximide dimaleate] the “Acute toxicity, number of dead cases / number of cases tested, 500 mg/kg” value (DDY strain mice) was 0/5, the “Acute toxicity, number of dead cases / number of cases tested, 1,000 mg/kg” value (DDY strain mice) was 0/5 and the Improvement of glucose tolerance at 10 mg/kg (sub-diabetic rats; [1]) was 0%. For the same compound, the Improvement of glucose tolerance at 10 mg/kg (sub-diabetic rats; [2]) was 13% and the Improvement of glucose tolerance at 10 mg/kg (sub-diabetic rats; [3]) was 26%.
Work on CCCCCC(=O)OC(CN1CCN(C)CC1)CN1C(=O)C2CC=CCC2C1=O (stereo not drawn) [Compound J, N-{2-n-Caproyloxy-3-(4-methylpiperazin-1-yl)propyl}cis-cyclohex-4-ene-1,2-dicarboximide dimaleate] yielded an inhibition in vivo at 10 mg/kg (sub-diabetic rats; [4]) of 0%, an inhibition in vivo at 10 mg/kg (sub-diabetic rats; [5]) of 21% and an inhibition in vivo at 10 mg/kg (sub-diabetic rats; [6]) of 32%.
For O=C(O)/C=C\C(=O)O.O=C(OC(CN1CCN(c2ccccn2)CC1)CN1C(=O)CCC1=O)C1CCCCC1 (stereo not drawn) [Compound A, N-[2-Cyclohexylcarbonyloxy-3-{4-(2-pyridyl)piperazin-1-yl}propyl]succinimide maleate], the “Acute toxicity, number of dead cases / number of cases tested, 500 mg/kg” value (DDY strain mice) was 0/5, the “Acute toxicity, number of dead cases / number of cases tested, 1,000 mg/kg” value (DDY strain mice) was 0/5 and the Improvement of glucose tolerance at 10 mg/kg (sub-diabetic rats; [1]) was 12%. For the same compound, the Improvement of glucose tolerance at 10 mg/kg (sub-diabetic rats; [2]) was 25% and the Improvement of glucose tolerance at 10 mg/kg (sub-diabetic rats; [3]) was 19%.
For O=C(OC(CN1CCN(c2ccccn2)CC1)CN1C(=O)[C@@H]2[C@H](C1=O)[C@@H]1C=C[C@H]2C1)C1CCCCC1 (stereo partly drawn) [Example 7, N-[2-Cyclohexylcarbonyloxy-3-{4-(2-pyridyl)piperazin-1-yl}propyl]-endo-cis-bicyclo[2,2,1]hept-5-ene-2,3-dicarboximide dihydrochloride], the “Improvement percent of glucose tolerance after 1 hour” value (sub-diabetic rats; 39 mg/kg, 6 rats, after 1 hour, method similar to Experiment 1) was 23%, the “Improvement percent of glucose tolerance after 2 hours” value (sub-diabetic rats; 39 mg/kg, 6 rats, after 2 hours, method similar to Experiment 1) was 33% and the “Improvement percent of glucose tolerance after 3 hours” value (sub-diabetic rats; 39 mg/kg, 6 rats, after 3 hours, method similar to Experiment 1) was 37%.
CCC(=O)OC(CN1CCN(c2ccccn2)CC1)CN1C(=O)c2ccccc2C1=O (stereo not drawn) [Compound I, N-[2-Propionyloxy-3-{4-(2-pyridyl)piperazin-1-yl}propyl]phthalimide maleate] gave an inhibition in vivo at 10 mg/kg (sub-diabetic rats; [4]) of 14%, an inhibition in vivo at 10 mg/kg (sub-diabetic rats; [5]) of 26% and an inhibition in vivo at 10 mg/kg (sub-diabetic rats; [6]) of 31%.
